{"source": "paper PMC9332833", "about": "(Cancers, 2022)", "key": {"[1]": {"experiment": "Body and organ weights in K562 xenograft mice", "conditions": "for Brain weight / Heart weight / Kidneys weight / Liver weight / Lung weight / Splean weight: mean ± SD, N=4", "experimental": "Eight-week-old female NOD.Cg-Prkdcscid Il2rgtm1Wjl/SzJ NSG mice (Jackson Laboratory, Bar Harbor, ME, USA) were injected subcutaneously into the dorsal fold with 1 × 10^6 K562 cells of the human chronic myeloid leukemia (CML) line in a final volume of 100 µL (0.5% of the mouse weight). On day 3 after cell administration, mice were randomly assigned to each group, and on days 4–17 of the experiment, the selected tested compounds and control solutions were administered intraperitoneally or orally. During the experiment, subcutaneous tumors and body weight were measured daily. Tumor growth during the experiment was measured with an electronic display caliper. The theoretical tumor volume [mm], was calculated according to the formula (a^2 × b) * 0.5, where a is the shorter tumor axis [mm] and b is the longer tumor axis [mm]. On day 26, the experiment was terminated: blood was collected and analyzed for cellular morphology and standard biochemistry metabolites. Tumors were weighed.\nControl and treated mice were grouped according to the tested compounds and the scheme of their administrations (doses, administration frequencies, routes of administration) in the CML xenogeneic model obtained by subcutaneous transplantation of 1 × 10^6 cells of the human CML blast line K562 into mice NOD.Cg-Prkdcscid Il2rgtm1Wjl/SzJ (NSG).\nHydroxyurea K562 500 mg/kg, IP Aqua pro 1 x daily 8"}, "K562-MDR1 cells": {"tested_on": "K562-MDR1 cells", "experiment": "Annexin V-FITC/PI apoptosis measurement, K562-MDR1", "format": "cell-based, human", "conditions": "5 µM, 24 h", "description": "(§1) Cells were seeded in 6-well plates (K562 or K562-MDR1) or in 24-well plates (CD34^+ cells). After 24 h, BK124.1 or DMSO was added. After a further 24 h, cells were stained using the Annexin V-FITC kit for the detection of apoptosis (BD, Franklin Lakes, NJ, USA) and immediately analyzed on a BD FACSCalibur using CellQuest software (BD, Franklin Lakes, NJ, USA). […]\n(§2) incubated overnight at 37 °C and analyzed using an iMark Microp late absorbance reader (Bio-Rad, Hercules, CA, USA). Results were calculated relative to control cells treated with DMSO only.\n(§3) […] CD34+ cells were plated at a concentration of 2.5 × 10^5 cells/mL in a 24-well plate. […] A f t e r a further 24 hours, cells were harvested and stained according to the manufacturer's protocol using the Annexin V-FITC kit for the detection of apoptosis (BD, Franklin Lakes, NJ, USA). Stained cells were immediately analyzed on a BD FACSCalibur using CellQuest softwa re (BD, Franklin Lakes, NJ, USA).\n(§4) Cells were seeded at a concentration of 1-2 × 10^5 cells/mL in a 6-well plate. After 24 hours of pre-incubation, BK124.1 in DMSO was added to the cells (vDMSO/vmedium), and incubated for 24 or 48 hours.\n(§5) After incubation, cells were washed twice with ice-cold PBS (Mg2+ and Ca2+-free), resuspended in ice-cold 70% ethanol, and placed at -20 °C for 24 hours. […]\n(§6) Flow cytometry analysis of CD243 (P-glycoprotein) […]"}, "[2]": {"tested_on": "CD34+ cells from CML patients", "experiment": "MTT viability assay, CML CD34+ cells", "format": "cell-based", "conditions": "Homo sapiens, 48 h", "description": "Blood samples were taken (venipuncture, EDTA-K2 Vacutainer tubes, Becton Dickinson, Franklin Lakes, NJ, USA) from 8 chronic phase CML patients (CML1–CML8; 4 men and 4 women, aged 39–79) diagnosed at the Department of Hematology, University Clinical Center, Medical University of Warsaw, following their written consent. The diagnosis was carried out by qualified clinical staff based on an interview, blood parameters and molecular tests detecting BCR-ABL1 (transcript b3a2). Peripheral blood mononuclear cells were immediately isolated from the fresh blood sample using standard protocol (Supplementary Methods). […]\nCells were seeded in 96-well plates; after 24 h, medium with the appropriate drug concentration was added to each well. […] Absorbance was read using an iMark Microplate absorbance reader (Bio-Rad, Hercules, CA, USA). Results were calculated relative to cells treated with DMSO only.\n[…] Next, we isolated CD34+ cells (EasySep™ Human CD34 Positive Selection Kit II, StemCell Technologies, Vancouver, Canada), counted them and assessed viability with Muse Cell Analyzer (Merck Millipore, Burlington, MA, USA). […] The purity of the live CD34+ fraction was assessed by flow cytometry with anti-human CD34-APC antibody, compared with an appropriate isotype control (Biolegend, San Diego, CA, USA), and propidium iodide (Sigma-Aldrich, St. Louis, MO, USA). […]"}, "K562 cells": {"tested_on": "K562 cells", "experiment": "Annexin V-FITC/PI apoptosis measurement, K562", "format": "cell-based, human", "conditions": "5 µM, 24 h", "description": "as §1, §2, §3, §4, §5, §6"}}}
{"smiles": "CCC12C(=O)C(CC)(C(c3ccccc3)=C1c1ccccc1)C1C(=O)N(CC(O)CNC(C)C)C(=O)C12", "note": "(centres unmarked) [BK124.1, 4-[2-hydroxy-3-(propan-2-ylamino)propyl]-1,7-diethyl-8,9-diphenyl-4-azatricyclo [5.2.1.02,6]dec-8-ene-3,5,10-trione]", "values": [{"measurement": "Brain weight", "setting": "[1]; 20 mg/kg IP daily 14 days", "value": "0.47 ± 0.02", "unit": "g"}, {"measurement": "Heart weight", "setting": "[1]; 20 mg/kg IP daily 14 days", "value": "0.10 ± 0.00", "unit": "g"}, {"measurement": "Kidneys weight", "setting": "[1]; 20 mg/kg IP daily 14 days", "value": "0.26 ± 0.03", "unit": "g"}, {"measurement": "Liver weight", "setting": "[1]; 20 mg/kg IP daily 14 days", "value": "1.09 ± 0.10", "unit": "g"}, {"measurement": "Lung weight", "setting": "[1]; 20 mg/kg IP daily 14 days", "value": "0.24 ± 0.10", "unit": "g"}, {"measurement": "Splean weight", "setting": "[1]; 20 mg/kg IP daily 14 days", "value": "0.03 ± 0.02", "unit": "g"}, {"measurement": "Brain weight", "setting": "[1]; 30 mg/kg IP daily 14 days", "value": "0.47 ± 0.01", "unit": "g"}, {"measurement": "Heart weight", "setting": "[1]; 30 mg/kg IP daily 14 days", "value": "0.10 ± 0.02", "unit": "g"}, {"measurement": "Kidneys weight", "setting": "[1]; 30 mg/kg IP daily 14 days", "value": "0.28 ± 0.02", "unit": "g"}, {"measurement": "Liver weight", "setting": "[1]; 30 mg/kg IP daily 14 days", "value": "1.27 ± 0.11", "unit": "g"}, {"measurement": "Lung weight", "setting": "[1]; 30 mg/kg IP daily 14 days", "value": "0.34 ± 0.02", "unit": "g"}, {"measurement": "Splean weight", "setting": "[1]; 30 mg/kg IP daily 14 days", "value": "0.03 ± 0.01", "unit": "g"}, {"measurement": "Morphology or weight of internal organs (liver, spleen, kidneys, lungs, heart) versus untreated controls", "setting": "[1]; doses as in Table S3", "value": "no changes"}, {"measurement": "Total body weight course", "setting": "[1]; doses as in Table S3, control mice gained mass in the last 5 days", "value": "No such increase occurred"}, {"measurement": "Apoptosis", "setting": "K562-MDR1 cells", "value": 30.1, "unit": "%"}, {"measurement": "IC50", "setting": "[2]", "value": 1500, "unit": "nM"}, {"measurement": "Apoptosis", "setting": "K562 cells", "value": 61.2, "unit": "%"}]}
